Where two headings read alike, the source gives them in different places.
Key:
TDP1 = target: T1, TDP1 (Homo sapiens, UniProt Q9NUW8); experiment: Real-time fluorescence detection of TDP1 activity (FAM/BHQ1 oligonucleotide biosensor); type: biochemical
T1 construct: made in house; host or cells: E. coli

HeLa cells = experiment: Intrinsic cytotoxicity, EZ4U colorimetric test, HeLa; type: cell-based, human; settings: Figure 6
Procedure: (§1) Cytotoxicity of the compounds was examined against human cell lines HEK293A (human embryonic kidney)—WT and TDP1-deficient (Tdp1-/-), and HeLa (cervical cancer) using an EZ4U colorimetric tests (Biomedica, Vienna, Austria) or xCELLigence DP Real-Time Cell Analyzer (ACEA Biosciences, Santa Clara, CA, USA). Cell lines were obtained from the Russian Cell Culture Collection (RCCC) Institute of Cytology RAS (St. Petersburg, Russia). The cells were grown in DMEM/F12 medium (Thermo Fisher Scientific, Waltham, MA, USA), with 1× GlutaMAX (Thermo Fisher Scientific, Waltham, MA, USA), 50 IU/mL penicillin, and 50 μg/mL streptomycin (Thermo Fisher Scientific, Waltham, MA, USA), and in the presence of 10% fetal bovine serum (Biolot, Saint-Petersburg, Russia) in 5% CO2 atmosphere. Control cells were grown in the presence of 1% DMSO where indicated. After formation of a 30–50% monolayer, tested compounds were added to the medium, and the cell culture was monitored for 3 days. […] The measurements were carried out in three parallel experiments.
(§2) The intrinsic cytotoxicity of the four lead compounds (11a–d) was examined using a colorimetric test (Figure 6).

HEK293A cells = experiment: Intrinsic cytotoxicity, EZ4U colorimetric test, HEK293A; type: cell-based, human; settings: Figure 6
Procedure: as §1, §2

[1] = as repeated in Table S1, read-out: IC50
[2] = as repeated in Table S2, read-out: IC50
[3] = as repeated in Table S3, read-out: IC50
[4] = real-time fluorescent test, 1.5 nM TDP1, 50 nM substrate, 26 °C, read-out: IC50, TDP1 activity

T1 sequence (Q9NUW8 whole entry): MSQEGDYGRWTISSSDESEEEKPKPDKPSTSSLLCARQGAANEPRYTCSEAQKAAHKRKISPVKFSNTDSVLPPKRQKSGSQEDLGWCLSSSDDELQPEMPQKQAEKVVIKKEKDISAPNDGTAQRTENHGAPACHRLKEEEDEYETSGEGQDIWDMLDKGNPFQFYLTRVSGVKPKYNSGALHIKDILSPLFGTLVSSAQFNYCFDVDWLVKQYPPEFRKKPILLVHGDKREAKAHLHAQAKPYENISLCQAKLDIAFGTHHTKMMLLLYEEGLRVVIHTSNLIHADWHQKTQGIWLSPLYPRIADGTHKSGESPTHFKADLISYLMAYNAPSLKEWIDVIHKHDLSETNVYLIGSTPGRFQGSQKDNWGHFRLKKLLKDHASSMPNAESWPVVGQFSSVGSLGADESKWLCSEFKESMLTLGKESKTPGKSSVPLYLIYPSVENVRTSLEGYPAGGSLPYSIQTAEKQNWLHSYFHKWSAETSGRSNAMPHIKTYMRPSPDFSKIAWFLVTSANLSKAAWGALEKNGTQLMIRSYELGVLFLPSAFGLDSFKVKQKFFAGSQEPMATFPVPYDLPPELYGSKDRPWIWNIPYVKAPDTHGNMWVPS

| Compound | IC50 (TDP1; [1]) [µM] | IC50 (TDP1; [2]) [µM] | IC50 (TDP1; [3]) [µM] | IC50 (TDP1; [4]) [µM] | intrinsic cytotoxicity (in words) (HeLa cells) | intrinsic cytotoxicity (in words) (HEK293A cells) | IC50, TDP1 activity (TDP1; real-time fluorescent test, 1.5 nM TDP1, 50 nM substrate, 26 °C) |
| --- | --- | --- | --- | --- | --- | --- | --- |
| CC(=O)c1c(O)c(C)c(O)c2c1OC1=CC(=O)/C(=C(/C)NCCCC(=O)OCC3=CC[C@H]4C[C@@H]3C4(C)C)C(=O)[C@@]12C [13d, [(1R,5S)-6,6-Dimethylbicyclo[3.1.1]hept-2-en-2-yl]methyl 4-({1-[(2R,4E)-10-acetyl-11,13-dihydroxy-2,12-dimethyl-3,5-dioxo-8-oxatricyclo[7.4.0.0^2,7]trideca-1(13),6,9,11-tetraen-4-ylidene]ethyl}amino)butanoate] | > 10 | > 10 | > 10 | > 10 | – | – | – |
| CC(=O)c1c(O)c(C)c(O)c2c1OC1=CC(=O)/C(=C(/C)NCC3=CC[C@H]4C[C@@H]3C4(C)C)C(=O)[C@@]12C [11d, (2R,4E)-10-Acetyl-4-[1-({[(1R,5S)-6,6-dimethylbicyclo[3.1.1]hept-2-en-2-yl]methyl}amino)ethylidene]-11,13-dihydroxy-2,12-dimethyl-8-oxatricyclo[7.4.0.0^2,7]trideca-1(13),6,9,11-tetraene-3,5-dione] | 0.23 | – | – | – | completely suppressed cell growth at 100 μM | completely suppressed cell growth at 100 μM | – |
| CC(=O)c1c(O)c(C)c(O)c2c1OC1=CC(=O)/C(=C(/C)NCCCC(=O)OC/C=C(\C)CCC=C(C)C)C(=O)[C@@]12C [13b, (2E)-3,7-Dimethylocta-2,6-dien-1-yl 4-({1-[(2R,4E)-10-acetyl-11,13-dihydroxy-2,12-dimethyl-3,5-dioxo-8-oxatricyclo[7.4.0.0^2,7]trideca-1(13),6,9,11-tetraen-4-ylidene]ethyl}amino)butanoate] | > 10 | > 10 | > 10 | > 10 | – | – | – |
| CC(=O)c1c(O)c(C)c(O)c2c1OC1=CC(=O)/C(=C(/C)NC/C=C(\C)CCC=C(C)C)C(=O)[C@@]12C [11b, (2R,4E)-10-Acetyl-4-(1-{[(2E)-3,7-dimethylocta-2,6-dien-1-yl]amino}ethylidene)-11,13-dihydroxy-2,12-dimethyl-8-oxatricyclo[7.4.0.0^2,7]trideca-1(13),6,9,11-tetraene-3,5-dione] | 0.32 | – | – | – | completely suppressed cell growth at 100 μM | completely suppressed cell growth at 100 μM | – |
| CC(=O)c1c(O)c(C)c(O)c2c1OC1=CC(=O)/C(=C(/C)NCCCC(=O)OCCC3=CC[C@H]4C[C@@H]3C4(C)C)C(=O)[C@@]12C [13c, 2-[(1R,5S)-6,6-Dimethylbicyclo[3.1.1]hept-2-en-2-yl]ethyl 4-({1-[(2R,4E)-10-acetyl-11,13-dihydroxy-2,12-dimethyl-3,5-dioxo-8-oxatricyclo[7.4.0.0^2,7]trideca-1(13),6,9,11-tetraen-4-ylidene]ethyl}amino)butanoate] | > 10 | > 10 | > 10 | > 10 | – | – | – |
| C=C(C)[C@@H]1CC=C(CN/C(C)=C2\C(=O)C=C3Oc4c(C(C)=O)c(O)c(C)c(O)c4[C@@]3(C)C2=O)CC1 [11e, (2R,4E)-10-Acetyl-11,13-dihydroxy-2,12-dimethyl-4-[1-({[(4S)-4-(prop-1-en-2-yl)cyclohex-1-en-1-yl]methyl}amino)ethylidene]-8-oxatricyclo[7.4.0.0^2,7]trideca-1(13),6,9,11-tetraene-3,5-dione] | > 10 | > 10 | > 10 | > 10 | – | – | did not inhibit the enzyme |
| C=C(C)[C@@H]1CC=C(COC(=O)CCCN/C(C)=C2\C(=O)C=C3Oc4c(C(C)=O)c(O)c(C)c(O)c4[C@@]3(C)C2=O)CC1 [13e, [(4S)-4-(Prop-1-en-2-yl)cyclohex-1-en-1-yl]methyl 4-({1-[(2R,4E)-10-acetyl-11,13-dihydroxy-2,12-dimethyl-3,5-dioxo-8-oxatricyclo[7.4.0.0^2,7]trideca-1(13),6,9,11-tetraen-4-ylidene]ethyl}amino)butanoate] | > 10 | > 10 | > 10 | > 10 | – | – | – |
| CC(=O)c1c(O)c(C)c(O)c2c1OC1=CC(=O)/C(=C(/C)NCCCC(=O)OCC[C@H](C)CCC=C(C)C)C(=O)[C@@]12C [13a, (3R)-3,7-Dimethyloct-6-en-1-yl 4-({1-[(2R,4E)-10-acetyl-11,13-dihydroxy-2,12-dimethyl-3,5-dioxo-8-oxatricyclo[7.4.0.0^2,7]trideca-1(13),6,9,11-tetraen-4-ylidene]ethyl}amino)butanoate] | > 10 | > 10 | > 10 | > 10 | – | – | – |
